Assay type in all cases: in vivo, mouse
Assay [1] relates to OVX BALB/c mice. The conditions noted are these: femur midshaft cortical cross-section, FTIRI, vs vehicle-treated OVX mice.
Assay [2] has as its system OVX BALB/c mice. The experiment in a line: Dynamic bone histomorphometry of tibia in OVX mice. The conditions noted are these: calcein labelling.
Assay [3] has as its system OVX BALB/c mice. Briefly: Bone strength, 3-point bending of femur in OVX mice. The following applies: 8 weeks of treatment.
Assay [4] has as its system OVX BALB/c mice. Briefly: Circulating PTH, CTX-I and P1NP in OVX mice. The conditions noted are these: plasma at necropsy, vs OVX+vehicle.
Assay [5] relates to OVX BALB/c mice. Briefly: High resolution X-ray microCT of tibia in OVX mice. The conditions noted are these: 8 weeks, vs OVX+vehicle.

As for `O=P(O)(O)C(O)(Cn1ccnc1)P(=O)(O)O` [zoledronic acid], in the assay on OVX BALB/c mice [1], the “Enhancement of collagen maturity” value is reported as “None of these effects were observed” and the “Reduction of the degree of mineralization of the bone ECM” value is “None of these effects were observed”. Also, in the assay with OVX BALB/c mice [2], the Active mineralizing surface entry is given as “reduction” and the Bone formation rate entry is reported as “reduction”. Further, in the assay on OVX BALB/c mice [3], the “Reduced deformation in load-deformation curves of OVX mice” value is “not ameliorated”. Besides, in the assay with OVX BALB/c mice [4], the “Change of circulating levels of P1NP” value is on record as −25% and the “Reduction of circulating levels of CTX-I” value was found to be 24%. In addition, the “Increase of cortical thickness” value with OVX BALB/c mice [5] (midshaft tibia) was found to be 6%. For the same compound, in the assay on OVX BALB/c mice [5] (proximal tibia), the “Increase of trabeculae numbers” value is given as 106% and the “Increase of trabecular bone mass” value turned out to be 85%.

The values are drawn from article doi:10.1101/2022.07.21.500659v1 (bioRxiv, 2022).
